Laboratory results taken from patent US20230233569A1 (Revolution Medicines, Inc., priority 2020, published 2023).
Read-outs that look alike come from different tables or passages of the source.

Experiments:
NCI-H358 (K-Ras G12C) = experiment: CellTiter-Glo cell viability assay, 5-day treatment; assay type: cell-based; conditions: Homo sapiens
Method: Protocol: CellTiter-Glo® Cell Viability Assay
Note—The following protocol describes a procedure for monitoring cell viability of K-Ras mutant cancer cell lines in response to a compound of the invention. Other RAS isoforms may be employed, though the number of cells to be seeded will vary based on cell line used.
(§1) Test compounds (132.5 nL) were directly dispensed into the assay plates containing cells. […] On day 5, assay plates and their contents were equilibrated to room temperature for approximately 30 minutes. […] Luminescence was measured using the PerkinElmer Enspire. Data were normalized by the following: (Sample signal/Avg. DMSO)*100. The data were fit using a four-parameter logistic fit.
as §1, with “nl)” for “nL)”

KRAS G13C = KRAS G13C (Homo sapiens, UniProt P01116+P62937, G13C); experiment: Disruption of BRAF RBD interaction with Ras (FRET / MOA assay, with Cyclophilin A); assay type: biochemical
Source text: (§2) This protocol may also be executed substituting other Ras proteins or nucleotides.
(§3) The purpose of this biochemical assay was to measure the ability of test compounds to facilitate ternary complex formation between a nucleotide-loaded K-Ras isoform and Cyclophilin A; the resulting ternary complex disrupts binding to a BRAF^RBD construct, inhibiting K-Ras signaling through a RAF effector. Data is reported as IC50 values.
(§4) Compound was present in plate wells as a 10-point 3-fold dilution series starting at a final concentration of 30 μM. After incubation at 25° C. for 3 hours, a mixture of Anti-His Eu-W1024 and anti-GST allophycocyanin was then added to assay sample wells at final concentrations of 10 nM and 50 nM, respectively, and the reaction incubated for an additional 1.5 hours. […] Compounds that facilitate disruption of a K-Ras:RAF complex were identified as those eliciting a decrease in the TR-FRET ratio relative to DMSO control wells.
as §3, with “BRAF^RBDD” for “BRAF^RBD”

KRAS G12D = KRAS G12D (Homo sapiens, UniProt P01116+P62937, G12D); experiment: as above; assay type: biochemical
Source text: as §2, §3, §4
as §3, with “BRAF^RBDD” for “BRAF^RBD”

KRAS G12V = KRAS G12V (Homo sapiens, UniProt P01116+P62937, G12V); experiment: as above; assay type: biochemical
Source text: as §2, §3, §4
as §3, with “BRAF^RBDD” for “BRAF^RBD”

KRAS WT = KRAS WT (Homo sapiens, UniProt P01116+P62937); experiment: as above; assay type: biochemical
Source text: as §2, §3, §4
as §3, with “BRAF^RBDD” for “BRAF^RBD”

KRAS G12C = KRAS G12C (Homo sapiens, UniProt P01116+P62937, G12C); experiment: as above; assay type: biochemical
Source text: as §2, §3, §4
as §3, with “BRAF^RBDD” for “BRAF^RBD”

KRAS G13D = KRAS G13D (Homo sapiens, UniProt P01116+P62937, G13D); experiment: as above; assay type: biochemical
Source text: as §2, §3, §4
as §3, with “BRAF^RBDD” for “BRAF^RBD”

KRAS G12S = KRAS G12S (Homo sapiens, UniProt P01116+P62937, G12S); experiment: as above; assay type: biochemical
Source text: as §2, §3, §4
as §3, with “BRAF^RBDD” for “BRAF^RBD”

NRAS G12C = NRAS G12C (Homo sapiens, UniProt P01111+P62937, G12C); experiment: as above; assay type: biochemical; conditions: NRAS G12C; read-out: NRAS G12C FRET data IC50
Source text: as §2, §3, §4
as §3, with “BRAF^RBDD” for “BRAF^RBD”

[1] = NCI-H358, H358, K-Ras G12C, read-out: Additional H358 Cell Viability assay data (K-Ras G12C, IC50)
[2] = NCI-H358, 120 h, 5-day treatment, read-out: H358 Cell Viability assay data (K-Ras G12C, IC50)
[3] = read-out: KRAS G13C FRET data, IC50
[4] = read-out: KRAS G12D FRET data, IC50
[5] = KRAS G12V, read-out: KRAS G12V FRET data IC50
[6] = KRAS WT, read-out: KRAS WT FRET data IC50
[7] = read-out: KRAS G12C FRET data, IC50
[8] = read-out: KRAS G12S FRET data, IC50

KRAS G12S, sequence (P01116 1-169 isoform P01116-2 G12S limits assumed): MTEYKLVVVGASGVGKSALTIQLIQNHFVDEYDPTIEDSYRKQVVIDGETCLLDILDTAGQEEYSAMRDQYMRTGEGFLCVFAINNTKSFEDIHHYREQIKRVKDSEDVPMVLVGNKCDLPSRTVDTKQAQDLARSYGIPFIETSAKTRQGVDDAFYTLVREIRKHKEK
KRAS G12S, sequence (P62937 whole entry): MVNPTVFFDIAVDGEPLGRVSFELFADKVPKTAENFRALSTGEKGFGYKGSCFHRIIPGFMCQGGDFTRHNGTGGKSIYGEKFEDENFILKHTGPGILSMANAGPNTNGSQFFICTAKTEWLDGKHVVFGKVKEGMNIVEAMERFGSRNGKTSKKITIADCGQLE
KRAS G12C, sequence (P01116 1-169 isoform P01116-2 G12C): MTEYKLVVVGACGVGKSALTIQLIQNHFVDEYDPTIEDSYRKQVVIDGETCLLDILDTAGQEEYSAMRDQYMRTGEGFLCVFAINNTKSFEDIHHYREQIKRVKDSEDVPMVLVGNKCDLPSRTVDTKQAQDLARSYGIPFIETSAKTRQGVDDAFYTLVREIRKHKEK
KRAS G12C, sequence (P62937 whole entry): as the sequence (P62937 whole entry) above
KRAS G12V, sequence (P01116 1-169 isoform P01116-2 G12V limits assumed): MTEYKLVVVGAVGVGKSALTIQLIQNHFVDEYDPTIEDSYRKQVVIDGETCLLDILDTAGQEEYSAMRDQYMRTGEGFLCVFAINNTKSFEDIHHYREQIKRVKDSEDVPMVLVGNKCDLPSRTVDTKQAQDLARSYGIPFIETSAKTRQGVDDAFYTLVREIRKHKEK
KRAS G12V, sequence (P62937 whole entry): as the sequence (P62937 whole entry) above
KRAS G12D, sequence (P01116 1-169 isoform P01116-2 G12D limits assumed): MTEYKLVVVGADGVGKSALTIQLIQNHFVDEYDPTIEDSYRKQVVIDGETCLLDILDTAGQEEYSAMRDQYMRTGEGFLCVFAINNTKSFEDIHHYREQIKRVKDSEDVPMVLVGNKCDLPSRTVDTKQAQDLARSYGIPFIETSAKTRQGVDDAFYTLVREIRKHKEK
KRAS G12D, sequence (P62937 whole entry): as the sequence (P62937 whole entry) above
KRAS G13C, sequence (P01116 1-169 isoform P01116-2 G13C): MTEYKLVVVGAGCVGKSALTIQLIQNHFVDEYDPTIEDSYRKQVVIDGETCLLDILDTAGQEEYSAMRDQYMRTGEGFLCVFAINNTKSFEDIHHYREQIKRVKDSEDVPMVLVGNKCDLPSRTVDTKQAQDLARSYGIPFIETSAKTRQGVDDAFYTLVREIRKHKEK
KRAS G13C, sequence (P62937 whole entry): as the sequence (P62937 whole entry) above
KRAS WT, sequence (P01116 1-169 isoform P01116-2 limits assumed): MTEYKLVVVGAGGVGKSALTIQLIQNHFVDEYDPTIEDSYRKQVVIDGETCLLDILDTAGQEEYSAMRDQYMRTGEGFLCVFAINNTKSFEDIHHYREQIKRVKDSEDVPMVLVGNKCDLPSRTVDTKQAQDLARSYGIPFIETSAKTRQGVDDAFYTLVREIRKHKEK
KRAS WT, sequence (P62937 whole entry): as the sequence (P62937 whole entry) above
KRAS G13D, sequence (P01116 1-169 isoform P01116-2 G13D limits assumed): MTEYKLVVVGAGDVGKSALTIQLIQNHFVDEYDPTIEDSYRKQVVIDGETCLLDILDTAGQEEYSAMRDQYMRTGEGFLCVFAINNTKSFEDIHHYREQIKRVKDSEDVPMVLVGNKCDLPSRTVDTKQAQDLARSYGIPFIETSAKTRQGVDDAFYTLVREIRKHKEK
KRAS G13D, sequence (P62937 whole entry): as the sequence (P62937 whole entry) above
NRAS G12C, sequence (P01111 whole entry G12C): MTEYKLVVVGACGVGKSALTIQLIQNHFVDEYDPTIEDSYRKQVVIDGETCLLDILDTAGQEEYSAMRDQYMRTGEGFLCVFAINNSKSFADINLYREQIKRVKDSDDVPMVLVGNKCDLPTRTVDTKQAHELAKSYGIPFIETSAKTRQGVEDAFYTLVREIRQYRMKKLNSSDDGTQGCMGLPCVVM
NRAS G12C, sequence (P62937 whole entry): as the sequence (P62937 whole entry) above

Row | IC50 (NCI-H358 (K-Ras G12C); [1]) | IC50 (NCI-H358 (K-Ras G12C); [2]) | IC50 (KRAS G13C; [3]) | IC50 (KRAS G12D; [4]) | IC50 (KRAS G12V; [5]) | IC50 (KRAS WT; [6]) | IC50 (KRAS G12C; [7]) | IC50 (KRAS G12S; [8]) | Compound | further results
1 | 10 to 100 nM |  |  |  |  |  |  |  | CCn1c(-c2cccnc2[C@H](C)OC)c2c3cc(ccc31)-c1cccc(c1)C[C@H](NC(=O)[C@H](C(C)C)N(C)C(=O)[C@H]1CCN(C(=O)/C=C/CN3CC(OC)C3)C1)C(=O)N1CCC[C@H](N1)C(=O)OCC(C)(C)C2 (atropisomer, axis not shown) [Example A204] | 
2 | 100 to 1000 nM |  |  |  |  |  |  |  | C=CC(=O)N1CC[C@H](C(=O)N(C)[C@H](C(=O)N[C@H]2Cc3cc(O)cc(c3)-c3ccc4c(c3)c(c(-c3cccnc3[C@@H](OC)C3CC3)n4CC)CC(C)(C)COC(=O)[C@@H]3CCCN(N3)C2=O)C(C)C)C1 (atropisomer, axis not shown) [Example A206] | 
3 | 100 to 1000 nM |  |  |  |  |  |  |  | C=CC(=O)N1CC[C@H](C(=O)N(C)[C@H](C(=O)N[C@H]2C[C@H]3CN(CCO3)c3ccc4c(c3)c(c(-c3cccnc3[C@H](C)OC)n4CC)CC(C)(C)COC(=O)[C@@H]3CCCN(N3)C2=O)C(C)C)C1 (atropisomer, axis not shown) [Example A378] | 
4 |  | 1000 to 10000 nM | 100 to 1000 nM | 1000 to 10000 nM | 100 to 1000 nM | 100 to 1000 nM | 100 to 1000 nM | 100 to 1000 nM | CCn1c(-c2cccnc2COC)c2c3cc(ccc31)-c1cc(O)cc(c1)C[C@H](NC(=O)[C@H](C(C)C)N(C)C(=O)[C@H]1CCN(C(C)=O)C1)C(=O)N1CCC[C@H](N1)C(=O)OCC(C)(C)C2 [Example A22] | IC50 (KRAS G13D; KRAS G13D, read-out: KRAS G13D FRET data IC50): 1000 to 10000 nM
5 |  | > 10000 nM |  |  |  |  |  |  | CCn1c(-c2cnccc2COC)c2c3cc(ccc31)-c1cc(O)cc(c1)C[C@H](NC(=O)[C@H](C(C)C)N(C)C(=O)[C@@H]1CCN(C[C@@H](C)O)C1)C(=O)N1CCC[C@H](N1)C(=O)OCC(C)(C)C2 [Example A31] | IC50 (NRAS G12C): 100 to 1000 nM
6 | 10 to 100 nM |  |  |  |  |  |  |  | C=CC(=O)N1CC[C@H](C(=O)N(C)[C@H](C(=O)N[C@H]2Cc3cc(O)cc(c3)-c3ccc4c(c3)c(c(-c3ccccc3CCOC)n4C(C)(C)C#N)CC(C)(C)COC(=O)[C@@H]3CCCN(N3)C2=O)C(C)C)C1 [Example A34] | 
7 |  | 1000 to 10000 nM | 10 to 100 nM | 100 to 1000 nM | 1000 to 10000 nM | 100 to 1000 nM | 100 to 1000 nM | 100 to 1000 nM | CCn1c(-c2cnccc2COC)c2c3cc(ccc31)-c1cc(O)cc(c1)C[C@H](NC(=O)[C@H](C(C)C)N(C)C(=O)[C@H]1CCN(C(C)C)C1)C(=O)N1CCC[C@H](N1)C(=O)OCC(C)(C)C2 [Example A41] | 
8 |  | > 10000 nM | 100 to 1000 nM | 100 to 1000 nM | 1000 to 10000 nM | 100 to 1000 nM | 100 to 1000 nM | 100 to 1000 nM | CCn1c(-c2cccnc2COC)c2c3cc(ccc31)-c1cc(O)cc(c1)C[C@H](NC(=O)[C@H](C(C)C)N(C)C(=O)[C@H](N)CCCNC(=N)N)C(=O)N1CCC[C@H](N1)C(=O)OCC(C)(C)C2 [Example A48] | 
9 |  | 1000 to 10000 nM |  |  |  |  |  |  | CCn1c(-c2ccccc2CCOC)c2c3cc(ccc31)-c1cc(O)cc(c1)C[C@H](NC(=O)[C@H](C(C)C)N(C)C(=O)CCN)C(=O)N1CCC[C@H](N1)C(=O)OCC(C)(C)C2 [Example A70] | IC50 (KRAS G13C; KRAS G13C FRET data, IC50): 1000 to 10000 nM; IC50 (KRAS G12D; KRAS G12D FRET data, IC50): 1000 to 10000 nM; IC50 (KRAS G12V; KRAS G12V FRET data IC50, KRAS G12V): > 10000 nM; IC50 (KRAS WT; KRAS WT FRET data IC50, KRAS WT): 1000 to 10000 nM; IC50 (KRAS G12C; KRAS G12C FRET data, IC50): 1000 to 10000 nM; IC50 (KRAS G13D; KRAS G13D FRET data IC50, KRAS G13D): 1000 to 10000 nM; IC50 (KRAS G12S; KRAS G12S FRET data, IC50): 1000 to 10000 nM
10 | < 10 nM |  |  |  |  |  |  |  | C=CC(=O)N1CC[C@H](C(=O)N(C)[C@H](C(=O)N[C@H]2Cc3cc(O)cc(c3)-c3ccc4c(c3)c(c(-c3ccncc3COC)n4CC)CC(C)(C)COC(=O)[C@@H]3CCCN(N3)C2=O)C(C)C)C1 [Example A91] | 
